The target in this assay is T1, LRBA and CTLA-4 reporting system (Homo sapiens, UniProt P16410+P50851).
T1 construct: expressed in transfected cells; host or cells: HEK293
T1 sequence (P16410 36-223): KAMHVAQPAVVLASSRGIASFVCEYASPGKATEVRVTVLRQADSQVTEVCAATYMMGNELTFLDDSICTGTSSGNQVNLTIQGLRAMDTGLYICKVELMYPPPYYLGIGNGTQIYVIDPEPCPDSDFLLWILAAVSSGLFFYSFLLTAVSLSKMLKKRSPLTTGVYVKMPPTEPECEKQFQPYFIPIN
T1 sequence (P50851 whole entry): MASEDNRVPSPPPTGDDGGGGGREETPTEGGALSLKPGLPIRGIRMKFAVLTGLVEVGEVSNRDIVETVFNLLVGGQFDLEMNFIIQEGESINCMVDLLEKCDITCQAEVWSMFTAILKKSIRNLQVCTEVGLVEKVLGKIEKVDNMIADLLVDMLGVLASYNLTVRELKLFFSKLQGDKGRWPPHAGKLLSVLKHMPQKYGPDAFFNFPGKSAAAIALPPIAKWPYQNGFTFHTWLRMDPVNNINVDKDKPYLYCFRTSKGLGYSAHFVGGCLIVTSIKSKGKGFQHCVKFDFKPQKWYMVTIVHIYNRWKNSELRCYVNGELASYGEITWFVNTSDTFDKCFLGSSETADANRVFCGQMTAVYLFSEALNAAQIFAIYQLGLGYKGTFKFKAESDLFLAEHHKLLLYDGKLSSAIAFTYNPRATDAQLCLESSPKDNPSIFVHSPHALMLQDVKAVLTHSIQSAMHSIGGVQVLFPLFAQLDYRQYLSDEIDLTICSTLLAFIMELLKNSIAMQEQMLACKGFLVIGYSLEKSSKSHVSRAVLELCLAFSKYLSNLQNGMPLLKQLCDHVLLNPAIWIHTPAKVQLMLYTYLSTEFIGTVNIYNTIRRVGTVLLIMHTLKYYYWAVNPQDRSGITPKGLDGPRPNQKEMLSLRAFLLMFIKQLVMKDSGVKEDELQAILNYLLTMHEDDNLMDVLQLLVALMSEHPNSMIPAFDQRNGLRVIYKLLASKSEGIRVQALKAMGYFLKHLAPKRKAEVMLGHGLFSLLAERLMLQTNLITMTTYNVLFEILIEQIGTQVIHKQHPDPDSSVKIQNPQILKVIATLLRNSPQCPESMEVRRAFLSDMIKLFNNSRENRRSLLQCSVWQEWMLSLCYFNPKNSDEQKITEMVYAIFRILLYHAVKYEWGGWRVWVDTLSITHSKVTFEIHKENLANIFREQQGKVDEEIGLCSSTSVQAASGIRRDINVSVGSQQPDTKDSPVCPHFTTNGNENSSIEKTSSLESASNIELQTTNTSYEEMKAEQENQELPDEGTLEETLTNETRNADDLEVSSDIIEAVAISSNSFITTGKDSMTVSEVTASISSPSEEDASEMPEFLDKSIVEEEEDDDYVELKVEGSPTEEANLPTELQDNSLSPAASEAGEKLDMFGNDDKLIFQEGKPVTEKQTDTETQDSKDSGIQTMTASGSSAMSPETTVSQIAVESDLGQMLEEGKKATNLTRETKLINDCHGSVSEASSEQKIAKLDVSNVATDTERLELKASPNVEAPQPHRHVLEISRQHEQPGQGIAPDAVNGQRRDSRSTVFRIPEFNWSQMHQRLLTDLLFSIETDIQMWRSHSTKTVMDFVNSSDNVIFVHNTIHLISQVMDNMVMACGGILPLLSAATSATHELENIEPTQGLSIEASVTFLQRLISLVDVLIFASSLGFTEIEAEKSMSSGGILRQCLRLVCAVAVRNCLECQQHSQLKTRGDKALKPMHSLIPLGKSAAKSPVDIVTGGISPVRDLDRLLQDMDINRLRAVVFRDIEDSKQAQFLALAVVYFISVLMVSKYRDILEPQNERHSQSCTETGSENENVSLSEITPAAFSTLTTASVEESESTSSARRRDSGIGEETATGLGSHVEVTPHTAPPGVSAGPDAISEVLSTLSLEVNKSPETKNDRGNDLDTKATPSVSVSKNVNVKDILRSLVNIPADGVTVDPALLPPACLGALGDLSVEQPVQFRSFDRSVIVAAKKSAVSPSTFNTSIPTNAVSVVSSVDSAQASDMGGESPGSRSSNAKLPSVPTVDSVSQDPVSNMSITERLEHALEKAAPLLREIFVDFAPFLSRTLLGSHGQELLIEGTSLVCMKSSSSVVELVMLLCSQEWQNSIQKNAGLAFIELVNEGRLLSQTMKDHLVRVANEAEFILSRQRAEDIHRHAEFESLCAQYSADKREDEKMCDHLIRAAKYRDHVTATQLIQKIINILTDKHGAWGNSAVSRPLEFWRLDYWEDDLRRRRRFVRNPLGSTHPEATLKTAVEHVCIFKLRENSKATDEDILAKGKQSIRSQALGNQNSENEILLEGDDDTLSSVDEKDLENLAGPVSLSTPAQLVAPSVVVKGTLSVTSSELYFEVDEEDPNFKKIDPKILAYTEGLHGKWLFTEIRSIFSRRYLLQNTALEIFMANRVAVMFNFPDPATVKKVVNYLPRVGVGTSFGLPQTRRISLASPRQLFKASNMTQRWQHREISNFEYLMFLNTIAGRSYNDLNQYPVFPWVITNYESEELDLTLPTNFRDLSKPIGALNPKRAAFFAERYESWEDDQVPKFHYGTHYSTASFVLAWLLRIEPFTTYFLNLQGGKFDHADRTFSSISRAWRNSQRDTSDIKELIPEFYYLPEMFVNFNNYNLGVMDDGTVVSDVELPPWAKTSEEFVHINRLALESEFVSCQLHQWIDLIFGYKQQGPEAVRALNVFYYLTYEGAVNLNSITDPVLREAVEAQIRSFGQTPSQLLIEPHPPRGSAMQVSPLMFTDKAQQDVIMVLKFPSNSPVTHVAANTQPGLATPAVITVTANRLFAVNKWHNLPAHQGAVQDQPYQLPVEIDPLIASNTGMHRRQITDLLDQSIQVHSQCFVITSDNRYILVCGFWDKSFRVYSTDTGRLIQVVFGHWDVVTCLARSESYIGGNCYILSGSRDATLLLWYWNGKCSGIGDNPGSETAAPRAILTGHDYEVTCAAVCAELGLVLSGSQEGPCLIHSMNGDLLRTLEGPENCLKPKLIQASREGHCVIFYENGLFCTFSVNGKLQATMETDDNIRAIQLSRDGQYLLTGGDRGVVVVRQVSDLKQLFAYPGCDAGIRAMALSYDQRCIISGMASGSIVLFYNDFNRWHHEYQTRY
Briefly: LRBA/CTLA-4 protein-protein interaction reporting system, dual luciferase assay in HEK293 cells. It counts as cell-based. To be noted: HEK293 cells co-transfected with LRBA and CTLA-4 reporting system, 24 h after dosing; read-out: In vitro activity (IC50: concentration of compounds that inhibit 50% of reporting system activity). The protocol: HEK293 cells were spread on 96-well plates, and LRBA and CTLA-4 reporting system were co-transfected into HEK293 cells after 24 h. After 24 h, different compounds with final concentrations of 0.01, 0.033, 0.10, 0.33, 1.00, 3.33, 10.00, 33.33, and 100.00 μM were added. 24 h after dosing, the cell culture medium was removed and the cells were washed with cold PBS. Then the activity of the compounds were detected by the dual luciferase assay kit, and IC50 values were calculated according to the results.
For the compounds with strong activity (IC50<200 nM), the degradation of CTLA-4 protein was further detected by Western Blot. • IC50: Concentration of compounds that inhibit 50% of reporting system activity The size of IC50 is divided into four levels: • ++++, IC50<200 nM; +++, IC50 is 200-1000 nM; ++, IC50 is 1000-2000 nM; +, IC50>2000 nM.
With `Cn1cnc2c(-c3cnc4ccccc4c3)nc(N3CCNCC3)nc21` [Compound 45, 3-(9-methyl-2-(piperazin-1-yl)-9H-purin-6-yl)quinoline], the IC50 is 200 to 1000 nM. The result for `COc1ccc(-c2cc(-c3cnc4ccccc4c3)nc(N3CCNCC3)n2)cc1` [Compound 51, 3-(6-(4-methoxyphenyl)-2-(piperazin-1-yl)pyrimidin-4-yl)quinoline] reads below 200 nM; that for `c1ccc2ncc(-c3nc(N4CCNCC4)nc4ccccc34)cc2c1` [Compound 36, 2-(piperazin-1-yl)-4-(quinolin-3-yl)quinazoline], 200 to 1000 nM. The result for `c1cc(-c2ccc3c(c2)OCCO3)nc(N2CCNCC2)n1` [Compound 29, 4-(2,3-dihydrobenzo[b][1,4]dioxin-6-yl)-2-(piperazin-1-yl)pyrimidine] reads above 2000 nM. Regarding `C[C@@H]1CN(c2nccc(-c3cnc4ccccc4c3)n2)C[C@H](C)N1` [Compound 22, 3-(2-((3S,5R)-3,5-dimethylpiperazin-1-yl)pyrimidin-4-yl)quinoline], the IC50 was above 2000 nM.

Consider `NCC1CCN(c2nccc(-c3ccc4ccccc4n3)n2)CC1` [Compound 5, (1-(4-(quinolin-2-yl)pyrimidin-2-yl)piperidin-4-yl)methylamine], for which the IC50 was above 2000 nM. Consider `CN1CCN(c2nccc(-c3cnc4ccccc4c3)n2)CC1` [Compound 23, 3-(2-(4-methylpiperazin-1-yl)pyrimidin-4-yl)quinoline], for which the IC50 is above 2000 nM.

As for `NCCC1CCN(c2nccc(-c3cnc4ccccc4c3)n2)CC1` [Compound 19, 2-(1-(4-(quinolin-3-yl)pyrimidin-2-yl)piperidin-4-yl)ethylamine], the IC50 lay in the range of 200 to 1000 nM. `NCC1CCN(c2nccc(-c3cc4ccccc4nc3N)n2)CC1` [Compound 16, 3-(2-(4-(aminomethyl)piperidin-1-yl)pyrimidin-4-yl)quinolin-2-amine]: the IC50 was above 2000 nM.

As to `Cc1c(-c2cnc3ccccc3c2)ncnc1N1CCNCC1` [Compound 53, 3-(5-methyl-6-(piperazin-1-yl)pyrimidin-4-yl)quinoline], the IC50 was below 200 nM. As to `NCCNc1nccc(-c2cnc3ccccc3c2)n1` [Compound 26, N-(4-(quinolin-3-yl)pyrimidin-2-yl)ethane-1,2-diamine], the IC50 was below 200 nM.

As for `[2H]c1nc2ccccc2cc1-c1ccnc(N2CCC(CN)CC2)n1` [Compound 11, (1-(4-(quinolin-3-yl-2-d)pyrimidin-2-yl)piperidin-4-yl)methylamine], the IC50 was below 200 nM. As for `c1ccc2ncc(-c3nc(N4CCNCC4)ncc3C3CC3)cc2c1` [Compound 50, 3-(5-cyclopropyl-2-(piperazin-1-yl)pyrimidin-4-yl)quinoline], the figure is below 200 nM. As for `COc1cnc(N2CCNCC2)nc1-c1cnc2ccccc2c1` [Compound 43, 3-(5-methoxy-2-(piperazin-1-yl)pyrimidin-4-yl)quinoline], the IC50 was below 200 nM. For the compound `COc1cc(-c2ccnc(N3CCNCC3)n2)cnc1O` [Compound 34, 3-methoxy-5-(2-piperazin-1-yl-pyrimidin-4-yl)-pyridin-2-ol], the IC50 was above 2000 nM.

On to `OCCC1CCN(c2nccc(-c3cnc4ccccc4c3)n2)CC1` [Compound 21, (1-(4-(quinolin-3-yl)pyrimidin-2-yl)piperidin-4-yl)ethanol], for which the IC50 was above 2000 nM. For the compound `NCC1CCN(c2nccc(-c3cc4ccccc4nc3N3CCC(CN)CC3)n2)CC1` [Compound 8, (1-(3-(2-(4-(aminomethyl)piperidin-1-yl)pyrimidin-4-yl)quinolin-2-yl)piperidin-4-yl)methylamine], the IC50 lay within 1000 to 2000 nM. With `c1ccc2c(-c3ccnc(N4CCNCC4)n3)coc2c1` [Compound 33, 4-(benzofuran-3-yl)-2-(piperazin-1-yl)pyrimidine], the IC50 lay in the range of 200 to 1000 nM.

On to `NCC1CCN(c2cc(-c3cnc4ccccc4c3)ccn2)CC1` [Compound 12, (1-(4-(quinolin-3-yl)pyridin-2-yl)piperidin-4-yl)methylamine], for which the IC50 was above 2000 nM.

Consider `c1ccc2ncc(-c3nc(N4CCNCC4)nc4c3CCCC4)cc2c1` [Compound 37, 2-(piperazin-1-yl)-4-(quinolin-3-yl)-5,6,7,8-tetrahydroquinazoline], for which the IC50 lay within 200 to 1000 nM.

For `COc1ccc(-c2ccnc(N3CCNCC3)n2)cc1OC` [Compound 31, 4-(3,4-dimethoxy-phenyl)-2-piperazin-1-yl-pyrimidine], the IC50 is above 2000 nM. Consider `NCC1CCN(c2cccc(-c3cnc4ccccc4c3)c2)CC1` [Compound 15, (1-(3-(quinolin-3-yl)phenyl)piperidin-4-yl)methylamine], for which the IC50 is above 2000 nM. The result for `O=CNCC1CCN(c2nccc(-c3ccc4ncccc4c3)n2)CC1` [Compound 4, N-((1-(4-(quinolin-6-yl)pyrimidin-2-yl)piperidin-4-yl)methyl)formamide] reads above 2000 nM; that for `c1cc(-c2cnc3c(c2)OCCO3)nc(N2CCNCC2)n1` [Compound 28, 7-(2-(piperazin-1-yl)pyrimidin-4-yl)-2,3-dihydro-[1,4]dioxy[2,3-b]pyridine], above 2000 nM.

`c1ccc2cc(-c3ccnc(N4CCNCC4)n3)ccc2c1` [Comparing compound 1, reference compound]: the IC50 was above 2000 nM. Turning to `COc1cc(-c2cnc3ccccc3c2)nc(N2CCNCC2)n1` [Compound 39, 3-(6-methoxy-2-(piperazin-1-yl)pyrimidin-4-yl)quinoline], the IC50 is below 200 nM. In the case of `NCC1CCN(c2nccc(-c3cnc4ccccc4c3)n2)CC1` [Compound 1, (1-(4-(quinolin-3-yl)pyrimidin-2-yl)piperidin-4-yl)methylamine], the IC50 was below 200 nM. The result for `Nc1cc(-c2cnc3ccccc3c2)nc(N2CCNCC2)n1` [Compound 47, 2-(piperazin-1-yl)-6-(quinolin-3-yl)pyrimidin-4-amine] reads below 200 nM. In the case of `Fc1cnc(N2CCNCC2)nc1-c1cnc2ccccc2c1` [Compound 46, 3-(5-fluoro-2-(piperazin-1-yl)pyrimidin-4-yl)quinoline], the IC50 is below 200 nM. Regarding `Nc1cnc(N2CCNCC2)nc1-c1cnc2ccccc2c1` [Compound 38, 3-(5-amino-2-(piperazin-1-yl)pyrimidin-4-yl)quinoline], the IC50 was below 200 nM. Turning to `FC(F)(F)c1cc(-c2cnc3ccccc3c2)nc(N2CCNCC2)n1` [Compound 40, 3-(2-(piperazin-1-yl)-6-(trifluoromethyl)pyrimidin-4-yl)quinoline], the IC50 is below 200 nM. As for `NCC1CCN(c2nccc(-c3ccc4ncccc4c3)n2)CC1` [Compound 3, (1-(4-(quinolin-6-yl)pyrimidin-2-yl)piperidin-4-yl)methylamine], the IC50 is above 2000 nM. Take `c1ccc2ncc(-c3cc(N4CCOCC4)nc(N4CCNCC4)n3)cc2c1` [Compound 49, 4-(2-(piperazin-1-yl)-6-(quinolin-3-yl)pyrimidin-4-yl)morpholine]: the IC50 was 200 to 1000 nM. For `NC1CCN(c2nccc(-c3cnc4ccccc4c3)n2)CC1` [Compound 17, 1-(4-(quinolin-3-yl)pyrimidin-2-yl)piperidine-4-amine], the IC50 was 200 to 1000 nM. Consider `c1ccc2c(-c3ccnc(N4CCNCC4)n3)c[nH]c2c1` [Compound 32, 3-(2-(piperazin-1-yl)pyrimidin-4-yl)-1H-indole], for which the IC50 lay within 200 to 1000 nM. With `COc1nc2ccccc2cc1-c1ccnc(N2CCC(CN)CC2)n1` [Compound 9, (1-(4-(2-methoxyquinolin-3-yl)pyrimidin-2-yl)piperidin-4-yl)methylamine], the IC50 is below 200 nM.

With `COc1cc(-c2ccnc(N3CCNCC3)n2)cnc1OC` [Compound 30, 4-(5,6-dimethoxy-pyridin-3-yl)-2-piperazin-1-yl-pyrimidine], the IC50 was above 2000 nM. Turning to `NCC1CCN(c2nccc(-c3cnc4ccc(F)cc4c3)n2)CC1` [Compound 7, (1-(4-(6-fluoroquinolin-3-yl)pyrimidin-2-yl)piperidin-4-yl)methylamine], the IC50 fell in the range of 200 to 1000 nM. As for `NCC1CCN(c2cccc(-c3cnc4ccccc4c3)n2)CC1` [Compound 14, (1-(6-(quinolin-3-yl)pyridin-2-yl)piperidin-4-yl)methylamine], the IC50 is above 2000 nM.

Turning to `OCC1CCN(c2nccc(-c3cnc4ccccc4c3)n2)CC1` [Compound 20, (1-(4-(quinolin-3-yl)pyrimidin-2-yl)piperidin-4-yl)methanol], the IC50 was above 2000 nM. Consider `Nc1cc(N2CCNCC2)nc(-c2cnc3ccccc3c2)n1` [Compound 48, 6-(piperazin-1-yl)-2-(quinolin-3-yl)pyrimidin-4-amine], for which the IC50 lay in the range of 1000 to 2000 nM.

As for `NCCCNc1nccc(-c2cnc3ccccc3c2)n1` [Compound 27, N-(4-(quinolin-3-yl)pyrimidin-2-yl)propane-1,3-diamine], the IC50 lay within 1000 to 2000 nM. For the compound `NCC1CCN(c2nccc(-c3cc4ccccc4nc3O)n2)CC1` [Compound 10, 3-(2-(4-(aminomethyl)piperidin-1-yl)pyrimidin-4-yl)quinolin-2-ol], the IC50 is below 200 nM. On to `Cn1ncc2c(-c3cnc4ccccc4c3)nc(N3CCNCC3)nc21` [Compound 52, 3-(1-methyl-6-(piperazin-1-yl)-1H-pyrazolo[3,4-d]pyrimidin-4-yl)quinoline], for which the IC50 lay within 1000 to 2000 nM. `c1ccc2ncc(-c3ccnc(N4CCCNCC4)n3)cc2c1` [Compound 24, 3-(2-(1,4-diaza-1-yl)pyrimidin-4-yl)quinoline]: the IC50 was above 2000 nM.

Values taken from patent publication US20240199654A1, “CTLA-4 SMALL MOLECULE DEGRADATION AGENT AND APPLICATION THEREOF” (SUZHOU GUOKUANG PHARMTECH. CO., LTD., priority 2021, published 2024).
